Measured values taken from US20100280024A1, “RENIN INHIBITORS” (priority 2007, published 2010).
Structures can show the parent of a compound that is named as a salt.

Biological target: T1, Renin (Homo sapiens, UniProt P00797)
T1 sequence (P00797 67-406): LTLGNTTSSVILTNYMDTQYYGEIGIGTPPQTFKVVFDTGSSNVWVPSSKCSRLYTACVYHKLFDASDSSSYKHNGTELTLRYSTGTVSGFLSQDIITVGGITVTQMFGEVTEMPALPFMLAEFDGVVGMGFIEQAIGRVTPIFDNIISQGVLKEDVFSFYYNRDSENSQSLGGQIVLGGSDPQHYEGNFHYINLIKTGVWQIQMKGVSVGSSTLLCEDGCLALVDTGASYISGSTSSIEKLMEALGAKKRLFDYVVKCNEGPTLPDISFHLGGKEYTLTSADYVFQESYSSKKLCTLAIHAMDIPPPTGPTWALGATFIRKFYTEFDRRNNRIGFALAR
Assay: In-vitro renin inhibition assay (modified Cayman renin inhibitor screening assay, fluorescence)
Type: biochemical
Design: purchased Cayman 10006270
Conditions: 37° C., 30 mins; for inhibition at 0.1 µM: read-out: Renin inhibition (percent inhibition of renin activity) at 0.1 μM; for inhibition at 1 µM: compound concentration 1 μM, read-out: Renin inhibition (percent inhibition of renin activity) at 1 μM
Protocol: In-Vitro Renin Inhibition Assay
The enzymatic in vitro assay was performed in 96 well polypropylene plate (Nunc), using a modified Renin inhibitor screening assay protocol (Cayman, cat no: 10006270). The reaction system comprised assay buffer containing 50 mM Tris-HCL, pH=8.0 & 100 mM sodium chloride, human recombinant renin (1:20 diluted with fixed activity), synthetic renin substrates (9.5 μM) and different concentrations of renin inhibitors in DMSO in a total reaction system of 100 μl. The entire incubation mixture were incubated at 37° C. for 30 mins and the fluorescence was read in kinetic mode using excitation wavelengths of 335-345 nm and emission wavelengths of 485-510 nm. Enzyme inhibition was determined by percent inhibition of renin activity.

inhibition at 0.1 µM (compound concentration 0.1 μM) [%]	inhibition at 1 µM [%]	Renin inhibition (percent inhibition of renin activity) at 0.1 μM (compound concentration 0.1 μM)	SMILES
52.6	87.4	–	Cc1cc(Cl)c(OCCOc2ccc(CC(CN)C(=O)N3CCCc4cc(C)ccc43)cc2)c(Cl)c1 (stereo not drawn) [Example 16, 3-Amino-2-{4-[2-(2,6-dichloro-4-methyl-phenoxy)-ethoxy]-benzyl}-1-(6-methyl-3,4-dihydro-2H-quinolin-1-yl)-propan-1-one]
31.2	–	–	NCC(Cc1ccc(OCCOc2c(F)cccc2F)cc1)C(=O)N1CCCc2cc(C(F)(F)F)ccc21 (stereo not drawn) [Example 34, 3-Amino-2-{4-[2-(2,6-difluoro-phenoxy)-ethoxy]-benzyl}-1-(6-trifluoromethyl-3,4-dihydro-2H-quinolin-1-yl)-propan-1-one hydrochloride]
68	96.1	–	Cc1cc(Cl)c(OCCOc2ccc(CC(CN)C(=O)N3CCCc4cc(F)ccc43)cc2)c(Cl)c1 (stereo not drawn) [Example 20, 3-Amino-2-{4-[2-(2,6-dichloro-4-methyl-phenoxy)-ethoxy]-benzyl}-1-(6-fluoro-3,4-dihydro-2H-quinolin-1-yl)-propan-1-one]
–	65.8	–	Cc1cc(Cl)c(OCCOc2ccc(CC(CN)C(=O)N3CCC(C)CC3)cc2)c(Cl)c1 (stereo not drawn) [Example 18, 3-Amino-2-{4-[2-(2,6-dichloro-4-methyl-phenoxy)-ethoxy]-benzyl}-1-(4-methyl-piperidin-1-yl)-propan-1-one]
–	53.6	–	COc1cc2c(cc1OC)CN(C(=O)C(CN)Cc1ccc(OCCOc3c(Cl)cc(C)cc3Cl)cc1)CC2 (stereo not drawn) [Example 17, 2-Aminomethyl-3-{4-[2-(2,6-dichloro-4-methyl-phenoxy)-ethoxy]-phenyl}-1-(6,7-dimethoxy-3,4-dihydro-1H-isoquinolin-2-yl)-propan-1-one]
63.1	96.3	–	Cc1cc(Cl)c(OCCOc2ccc(CC(CN)C(=O)N3CCCc4cc(F)ccc43)cn2)c(Cl)c1 (stereo not drawn) [Example 44, 3-Amino-2-{6-[2-(2,6-dichloro-4-methyl-phenoxy)-ethoxy]-pyridin-3-ylmethyl}-1-(6-fluoro-3,4-dihydro-2H-quinolin-1-yl)-propan-1-one hydrochloride]
92.9	89.2	–	Cc1ccc(OCCOc2ccc(CC(CN)C(=O)N3CCCc4cc(C(F)(F)F)ccc43)cc2)c(Cl)c1 (stereo not drawn) [Example 33, 3-Amino-2-{4-[2-(2-chloro-4-methyl-phenoxy)-ethoxy]-benzyl}-1-(6-trifluoromethyl-3,4-dihydro-2H-quinolin-1-yl)-propan-1-one]
–	73.5	–	Cc1cc(Cl)c(OCCOc2ccc(CC(CN)C(=O)N3CCOc4ccccc43)cc2)c(Cl)c1 (stereo not drawn) [Example 4, 3-Amino-2-{4-[2-(2,6-dichloro-4-methyl-phenoxy)-ethoxy]-benzyl}-1-(2,3-dihydro-benzo[1,4]oxazin-4-yl)-propan-1-one]
71	82.5	–	Cc1cc(Cl)c(OCCOc2ccc(CC(CN)C(=O)N3CCCCC3)cn2)c(Cl)c1 (stereo not drawn) [Example 42, 2-Aminomethyl-3-{6-[2-(2,6-dichloro-4-methyl-phenoxy)-ethoxy]-pyridin-3-yl}-1-piperidin-1-yl-propan-1-one]
–	79.6	–	Cc1cc(Cl)c(OCCOc2ccc(CC(CN)C(=O)N3CCCc4cc(Cl)ccc43)cc2)c(Cl)c1 (stereo not drawn) [Example 5, 3-Amino-1-(6-chloro-3,4-dihydro-2H-quinolin-1-yl)-2-{4-[2-(2,6-dichloro-4-methyl-phenoxy)-ethoxy]-benzyl}-propan-1-one]
41.8	87	–	Cc1cc(Cl)c(OCCOc2ccc(CC(CN)C(=O)N3CCCc4cc(Cl)cc(Cl)c43)cc2)c(Cl)c1 (stereo not drawn) [Example 14, 3-Amino-1-(6,8-dichloro-3,4-dihydro-2H-quinolin-1-yl)-2-{4-[2-(2,6-dichloro-4-methyl-phenoxy)-ethoxy]-benzyl}-propan-1-one]
–	86.5	–	Cc1cc(Cl)c(OCCOc2ccc(CC(CN)C(=O)N3CCCc4cc(Br)ccc43)cc2)c(Cl)c1 (stereo not drawn) [Example 6, 3-Amino-1-(6-bromo-3,4-dihydro-2H-quinolin-1-yl)-2-{4-[2-(2,6-dichloro-4-methyl-phenoxy)-ethoxy]-benzyl}-propan-1-one]
38.9	–	–	NCC(Cc1ccc(OCCOc2ccc(Cl)cc2F)cc1)C(=O)N1CCCc2cc(C(F)(F)F)ccc21 (stereo not drawn) [Example 40, 3-Amino-2-{4-[2-(4-chloro-2-fluoro-phenoxy)-ethoxy]-benzyl}-1-(6-trifluoromethyl-3,4-dihydro-2H-quinolin-1-yl)-propan-1-one hydrochloride]
90.5	97.3	–	Cc1cc(Cl)c(OCCOc2ccc(CC(CN)C(=O)N3CCCc4ccccc43)cc2)c(Cl)c1 (stereo not drawn) [Example 2, 3-Amino-2-{4-[2-(2,6-dichloro-4-methyl-phenoxy)-ethoxy]-benzyl}-1-(3,4-dihydro-2H-quinolin-1-yl)-propan-1-one]
36.4	–	–	NCC(Cc1ccc(OCCOc2ccc(Cl)cc2Cl)cc1)C(=O)N1CCCc2cc(F)ccc21 (stereo not drawn) [Example 37, 3-Amino-2-{4-[2-(2,4-dichloro-phenoxy)-ethoxy]-benzyl}-1-(6-fluoro-3,4-dihydro-2H-quinolin-1-yl)-propan-1-one hydrochloride]
26.3	–	–	NCC(Cc1ccc(OCCOc2c(F)cccc2F)cc1)C(=O)N1CCCc2cc(F)ccc21 (stereo not drawn) [Example 35, 3-Amino-2-{4-[2-(2,6-difluoro-phenoxy)-ethoxy]-benzyl}-1-(6-fluoro-3,4-dihydro-2H-quinolin-1-yl)-propan-1-one hydrochloride]
36.3	–	–	NCC(Cc1ccc(OCCOc2ccc(Cl)cc2F)cc1)C(=O)N1CCCc2cc(F)ccc21 (stereo not drawn) [Example 39, 3-Amino-2-{4-[2-(4-chloro-2-fluoro-phenoxy)-ethoxy]-benzyl}-1-(6-fluoro-3,4-dihydro-2H-quinolin-1-yl)-propan-1-one hydrochloride]
18.7	97.1	–	Cc1cc(Cl)c(OCCCOc2ccc(CC(CN)C(=O)N3CCCc4ccccc43)cc2)c(Cl)c1 (stereo not drawn) [Example 45, 2-Aminomethyl-3-{4-[3-(2,6-dichloro-4-methyl-phenoxy)-propoxy]-phenyl}-1-(3,4-dihydro-2H-quinolin-1-yl)-propan-1-one]
93.1	–	–	CC(C)(C)c1ccc2c(c1)CCCN2C(=O)C(CN)Cc1ccc(OCCOc2c(Cl)cccc2Cl)cc1 (stereo not drawn) [Example 53, 3-Amino-1-(6-tert-butyl-3,4-dihydro-2H-quinolin-1-yl)-2-{4-[2-(2,6-dichloro-phenoxy)-ethoxy]-benzyl}-propan-1-one hydrochloride]
–	–	90.3	COC(=O)[C@H]1CCCN1C(=O)C(CN)Cc1ccc(OCCOc2c(Cl)cc(C)cc2Cl)cc1.Cl (stereo partly drawn) [Example 29, D-(2-Aminomethyl-3-{4-[2-(2,6-dichloro-4-methyl-phenoxy)-ethoxy]-phenyl}-propionyl)-pyrrolidine-2-carboxylic acid methyl ester hydrochloride]
99.2	98.7	–	Cc1cc(Cl)c(OCCOc2ccc(CC(CN)C(=O)N3CCCc4cc(C(F)(F)F)ccc43)cc2)c(Cl)c1 (stereo not drawn) [Example 15, 3-Amino-2-{4-[2-(2,6-dichloro-4-methyl-phenoxy)-ethoxy]-benzyl}-1-(6-trifluoromethyl-3,4-dihydro-2H -quinolin-1-yl)-propan-1-one]
